According to US20090054455A1, “ARIPIPRAZOLE CO-CRYSTALS” (DR. REDDY'S LABORATORIES LTD., priority 2006, published 2009):

Columns and labels:
[1] = Polymorphic stability on storage, checked by XRPD; type: physicochemical; settings: stored 3 months in self-sealing polyethylene bag, normal atmospheric conditions, room temperature
Experimental: The process of the present invention provides stable co-crystals of aripiprazole with fumaric acid. The term “stable crystalline form” refers to stability of the crystalline form under the standard temperature and humidity conditions of testing of pharmaceutical products, wherein the stability is indicated by preservation of the original polymorphic form.
Aripiprazole was prepared according to the process given in Example 2 and was packaged in a self-sealing polyethylene bag. The material was stored for 3 months under normal atmospheric conditions at room temperature and checked for polymorphic stability.

[2] = cited from earlier work

polymorphic stability (maintenance of the original XRPD pattern) [1] | Compound | solubility in aqueous media [2]
retain its polymorphic form | O=C(O)C=CC(=O)O.O=C1CCc2ccc(OCCCCN3CCN(c4cccc(Cl)c4Cl)CC3)cc2N1.O=C1CCc2ccc(OCCCCN3CCN(c4cccc(Cl)c4Cl)CC3)cc2N1 [Example 2] | –
– | O=C1CCc2ccc(OCCCCN3CCN(c4cccc(Cl)c4Cl)CC3)cc2N1 [aripiprazole, 7-[4-[4-(2,3-dichlorophenyl)-1-piperazinyl]butoxy]-3,4-dihydrocarbostyril] | practically insoluble
